Data set [1] is described as follows: Ross-Miles foam height assay of aldonamides (Examples 81-84). Conditions: 0.1% aldonamide, 40° C. (if not soluble, about 5°-10° C. above Krafft point), 0 ppm hardness; for Foam Height Final: after 10 minutes. Format: physicochemical. The method, then:
In the Ross-Miles method, 200 mL of a suffactant solution contained in a pipette of specified dimensions with a 2.9 -mm-i.d. orifice is allowed to fall 90 cm onto 50 mL of the same solution contained in a cylindrical vessel maintained at a given temperature by means of a water jacket. The height of the foam produced in the cylindrical vessel is read immediately after all the solution has run out of the pipette and then again after a given amount of time.
Using this method, the foam production (initial foam height in mm) and foam stability (final foam height after 10 minutes in mm) were measured at 0.1% aldonamtde concentration, 40° C. and 0 ppm (parts per million) hardness.

Data set [2] is described as follows: Krafft point determination. The format is physicochemical. The following applies: 0.1% in water. The method, then:
The temperature at and above which surfactants begin to form micelles instead of precipitates is referred to as the Krafft point (Tk) and at this temperature the solubility of a surfactant becomes equal to its CMC (numerical value at which micelles are formed).
The Krafft point was measured by preparing 650 ml of a 0.1% or 1.0% dispersion of aldonamide in water by weight. If the surfactant was soluble at room temperature, the solution was slowly cooled to 0° C. […] (less than zero). If it precipitated out of solution, the temperature at which precipitation occurs was taken as the Krafft point.
If the surfactant was insoluble at room temperature, the dispersion was slowly heated until the solution became homogeneous. It was then slowly cooled until precipitation occurred. The temperature at which the surfactant precipitates out of solution upon cooling was taken as the Krafft point.

The values below come from US5641480A, “Hair care compositions comprising heteroatom containing alkyl aldonamide compounds” (Lever Brothers Company, Division of Conopco, Inc., priority 1994, dated 1997).

For `CCCCCCCCCCCCOC(=O)C(C)NC(=O)[C@H](O)[C@@H](O)[C@H](O)[C@H](O)CO` (mixture of isomers) [N--D-Gluconyl C12 DL-Alaninate, N-D-Gluconyl Dodecyl DL-Alaninate], in data set [1], the “Foam Height Initial” value was found to be 197 mm and the “Foam Height Final” value is 112 mm.
Take `CCCCCCCNC(=O)[C@H](O)[C@@H](O)[C@H](O)[C@H](O)CO` [C7 D-Gluconamide]: in data set [1], the “Foam Height Initial” value was 0 mm and the “Foam Height Final” value is listed as 0 mm.
Regarding `CCCCCCCCNC(=O)[C@H](O)[C@@H](O)[C@H](O)[C@H](O)CO` [C8 D-Gluconamide], in data set [1], the “Foam Height Initial” value worked out at 0 mm and the “Foam Height Final” value was determined as 0 mm.
In the case of `CCCCCCCCCNC(=O)[C@H](O)[C@@H](O)[C@H](O[C@@H]1O[C@H](CO)[C@H](O)[C@H](O)[C@H]1O)[C@H](O)CO` [C9 D-Lactobionamide, Nonyl D-Lactobionamide], the “Krafft Point (0.1%)” value in data set [2] was determined as 42 °C. For the same compound, in data set [1], the “Foam Height Initial” value stood at 0 mm and the “Foam Height Final” value was found to be 0 mm.
On to `CCCCCCCCCCCNC(=O)[C@H](O)[C@@H](O)[C@H](O[C@@H]1O[C@H](CO)[C@H](O)[C@H](O)[C@H]1O)[C@H](O)CO` [C11 D-Lactobionamide], for which the “Krafft Point (0.1%)” value in data set [2] was 61 °C. In addition, in data set [1], the “Foam Height Initial” value is given as 0 mm and the “Foam Height Final” value is recorded as 0 mm.
`CCCCCCCCCCCCNC(=O)[C@H](O)[C@@H](O)[C@@H](O)[C@H](O)CO` [C12 D-Galactonamide]: the “Foam Height Initial” value in data set [1] is “Insoluble”.
As to `CCCCCCCCCCCCNC(=O)C(O)C(O)C(O)C(O)C(O)C(O)CO` [C12 D-Glucooctonamide], the “Krafft Point (0.1%)” value in data set [2] was 86 °C.
As to `CCCCCCCCCCCCNC(=O)[C@H](O)[C@H](O)[C@@H](O)[C@@H](O)[C@H](O)CO` [C12 D-Glycero-L-Mannoheptonamide], the “Foam Height Initial” value in data set [1] was “Insoluble”.
For `CCCCCCCCCCCCNC(=O)[C@H](O)[C@@H](O)[C@H](O[C@@H]1O[C@H](CO)[C@H](O)[C@H](O)[C@H]1O)[C@H](O)CO` [C12 D-Lactobionamide], the “Krafft Point (0.1%)” value in data set [2] came out at 38 °C. In data set [1], the “Foam Height Initial” value is given as 153 mm and the “Foam Height Final” value worked out at 20 mm.
As to `CCCCCCCCCCCCNC(=O)[C@@H](O)[C@H](O)[C@H](O)[C@@H](O)CO` [C12 L-Galactonamide], the “Foam Height Initial” value in data set [1] is “Insoluble”.
Still for that read-out and setting: the entry for `CCCCCCCCCCCCNC(=O)[C@H](O)[C@H](O)[C@@H](O)[C@@H](O)CO` [C12 L-Mannonamide] is “Insoluble”.
For `CCCCCCCCCCCCOCCCNC(=O)[C@H](O)[C@H](O)[C@@H](O)[C@H](O)[C@H](O)CO` [C12 Oxypropyl D-Glucoheptonamide], in data set [1], the “Foam Height Initial” value was determined as 245 mm and the “Foam Height Final” value was 80 mm.
For the compound `CCCCCCCCCCCCOCCCNC(=O)[C@H](O)[C@@H](O)[C@H](O[C@H]1O[C@H](CO)[C@@H](O)[C@H](O)[C@H]1O)[C@H](O)CO` [C12 Oxypropyl D-Maltobionamide, Dodecyloxypropyl D-Maltobionamide], the “Krafft Point (0.1%)” value in data set [2] was < 0 °C. Besides, in data set [1], the “Foam Height Initial” value is 163 mm and the “Foam Height Final” value is reported as 155 mm.
Regarding `CCCCCCCCCCCCNC(=O)[C@H](O)[C@H](O)[C@H](O)CO` [C12 Ribonamide, Dodecyl D-Ribonamide], in data set [1], the “Foam Height Initial” value is on record as 184 mm and the “Foam Height Final” value came out at 103 mm.
With `CCCCCCCCCCCCCNC(=O)[C@H](O)[C@@H](O)[C@H](O[C@@H]1O[C@H](CO)[C@H](O)[C@H](O)[C@H]1O)[C@H](O)CO` [C13 D-Lactobionamide], the “Krafft Point (0.1%)” value in data set [2] was 70 °C.
As to `CCCCCCCCCCCCCCNC(=O)[C@H](O)[C@@H](O)[C@H](O)[C@H](O)CO` [C14 D-Gluconamide], the “Foam Height Initial” value in data set [1] was “Insoluble”.
For `CCCCCCCCCCCCCCNC(=O)[C@H](O)[C@@H](O)[C@H](O[C@@H]1O[C@H](CO)[C@H](O)[C@H](O)[C@H]1O)[C@H](O)CO` [C14 D-Lactobionamide], the “Krafft Point (0.1%)” value in data set [2] was 18 °C. Besides, in data set [1], the “Foam Height Initial” value is recorded as 141 mm and the “Foam Height Final” value amounted to 59 mm.
Take `CCCCCCCCCCCCCCNC(=O)[C@H](O)[C@@H](O)[C@H](O[C@H]1O[C@H](CO)[C@@H](O)[C@H](O)[C@H]1O)[C@H](O)CO` [C14 D-Maltobionamide]: the “Krafft Point (0.1%)” value in data set [2] is 46 °C.
Regarding `CCCCCCCCCCCCCCOCCCNC(=O)[C@H](O)[C@@H](O)[C@H](O)[C@H](O)CO` [C14 Oxypropyl D-Gluconamide], in data set [1], the “Foam Height Initial” value turned out to be 203 mm and the “Foam Height Final” value was determined as 101 mm.
With `CCCCCCCCCCCCCCOCCCNC(=O)[C@H](O)[C@@H](O)[C@H](O[C@@H]1O[C@H](CO)[C@H](O)[C@H](O)[C@H]1O)[C@H](O)CO` [C14 Oxypropyl D-Lactobionamide, Tetradecyloxypropyl D-Lactobionamide], the “Krafft Point (0.1%)” value in data set [2] is < 0 °C. For the same compound, in data set [1], the “Foam Height Initial” value was 163 mm and the “Foam Height Final” value was 154 mm.
Take `CCCCCCCCCCCCCCCNC(=O)[C@H](O)[C@@H](O)[C@H](O[C@@H]1O[C@H](CO)[C@H](O)[C@H](O)[C@H]1O)[C@H](O)CO` [C15 D-Lactobionamide]: the “Krafft Point (0.1%)” value in data set [2] came to 84 °C.
`CCCCCCCCCCCCCCCCNC(=O)[C@H](O)[C@@H](O)[C@H](O)[C@H](O)CO` [C16 D-Gluconamide]: the “Foam Height Initial” value in data set [1] is given as “Insoluble”.
Regarding `CCCCCCCCCCCCCCCCNC(=O)[C@H](O)[C@@H](O)[C@H](O[C@@H]1O[C@H](CO)[C@H](O)[C@H](O)[C@H]1O)[C@H](O)CO` [C16 D-Lactobionamide], the “Krafft Point (0.1%)” value in data set [2] is 64 °C. In addition, in data set [1], the “Foam Height Initial” value was 95 mm and the “Foam Height Final” value was found to be 95 mm.
In the case of `CCCCCCCCCCCCCCCCCCNC(=O)[C@H](O)[C@@H](O)[C@H](O)[C@H](O)CO` [C18 D-Gluconamide], the “Foam Height Initial” value in data set [1] is reported as “Insoluble”.
Take `CCCCCCCCCCCCCCCCCCNC(=O)[C@H](O)[C@@H](O)[C@H](O[C@@H]1O[C@H](CO)[C@H](O)[C@H](O)[C@H]1O)[C@H](O)CO` [C18 D-Lactobionamide]: the “Krafft Point (0.1%)” value in data set [2] was 82 °C.
`CCCCCCCCCCCCOC(=O)CNC(=O)[C@H](O)[C@@H](O)[C@H](O[C@@H]1O[C@H](CO)[C@H](O)[C@H](O)[C@H]1O)[C@H](O)CO` [D-Lactobionyl C12 Glycinate, N-D-Lactobionyl Dodecyl Glycinate]: the “Krafft Point (0.1%)” value in data set [2] is < 0 °C. Besides, in data set [1], the “Foam Height Initial” value stood at 161 mm and the “Foam Height Final” value was 153 mm.
For `CCCCCCCCCCCCOC(=O)CCNC(=O)[C@H](O)[C@@H](O)[C@H](O[C@@H]1O[C@H](CO)[C@H](O)[C@H](O)[C@H]1O)[C@H](O)CO` [D-Lactobionyl C12 β-Alaninate, N-D-Lactobionyl Dodecyl β-Alaninate], in that order: < 0 °C, 159 mm and 152 mm.
Take `CCCCC(CC)COCCCNC(=O)[C@H](O)[C@@H](O)[C@H](O)[C@H](O)CO` (stereo partly drawn) [Ethylhexyloxypropyl D-Gluconamide]: in data set [1], the “Foam Height Initial” value was 0 mm and the “Foam Height Final” value is 0 mm.
For the compound `CCCCCCCCCCCCOCCOCCOC(=O)CNC(=O)[C@H](O)[C@@H](O)[C@H](O)[C@H](O)CO` [N--D-Gluconyl C12 Di(oxyethyl) Glycinate, N-D-Gluconyl Dodecyldi(oxyethyl) Glycinate], in data set [1], the “Foam Height Initial” value is given as 203 mm and the “Foam Height Final” value came to 169 mm.
On the same counts, the results for `CCCCCCCCCCCC(=O)OCCNC(=O)[C@H](O)[C@@H](O)[C@H](O)[C@H](O)CO` [N--D-Gluconyl C12 Ester of Ethanolamine, N-D-gluconyl dodecyl ester of ethanolamine] are 185 mm and 111 mm.
In the case of `CCCCCCCCCCCCOC(=O)CNC(=O)[C@H](O)[C@@H](O)[C@H](O)[C@H](O)CO` [N--D-Gluconyl C12 Glycinate, N-D-Gluconyl Dodecyl Glycinate], in data set [1], the “Foam Height Initial” value amounted to 183 mm and the “Foam Height Final” value stood at 107 mm.
On the same counts, the results for `CCCCCCCC/C=C\CCCCCCCCNCCCNC(=O)[C@H](O)[C@@H](O)[C@H](O)[C@H](O)CO` [Oleylaminopropyl D-Gluconamide] are 158 mm and 84 mm.
On the same counts, the results for “Octyl/Decyloxypropyl D-Ribonamide [C8 /C10 Oxypropyl D-Ribonamide]” are 217 mm and 200 mm.
For “dodecyl to pentadecyloxypropyl D-gluconamide [C12 -C15 Oxypropyl D-Gluconamide]”, in that order: 200 mm and 110 mm.
As for “dodecyl to pentadecyloxypropylaminopropyl D-gluconamide”, in data set [1], the “Foam Height Initial” value came out at 180 mm and the “Foam Height Final” value is 176 mm.
